Assay results published in EP0717995A2, “Cell degeneration suppressing and organ toxicity reducing agent” (SANWA KAGAKU KENKYUSHO CO., LTD., priority 1994, dated 1996).
Read-outs that look alike come from different tables or passages of the source.

Assays:
Format in all cases: in vivo
[1] = test system: spontaneous nephritis in MRL/1 mice; assay: Preventive action against spontaneous nephritis in MRL/1 mice (urinary protein, blood urea nitrogen); conditions: male MRL/1 mice, positive (urinary protein 100 mg/dl or more) / survived animals
Protocol: Protective effect of the pharmaceutical preparation of the present invention against spontaneous nephritis in MRL/1 mice was examined (protective effect on functional reduction due to aging).
Each test sample of 1 to 10 mg/kg mixed with feed was orally administered to male MRL/1 mice of 6 weeks of age (15 animals per 1 group) twice a week for 12 weeks. During the administration period, urinary protein was measured once a week to examine positive ratio in each week of age by defining an individual showing a urinary protein level of 100 mg/dl or more as positive. Also, blood urea nitrogen was measured on the next day of the final administration to carry out serologic biochemical evaluation of the action of the compound of the present invention against nephritis, together with histopathological evaluation.

[2] = test system: rats of 10 months of age
Protocol: Using rats of 10 months of age (8 to 9 animals per 1 group), 0.5 g/kg of carbon tetrachloride was orally administered as a hepatic toxicity substance to increase the serum GOT level to 500 KARMEN units or more after 24 hours of the administration, simultaneously carrying out oral administration of (1) indomethacin (5 mg/kg) or (2) tetracycline (10 mg/kg) as a pharmaceutical drug having hepatic toxicity, 3 times on every other day.
In the inventive substance-treated group, the sulfatide composition described in Composition Production Example (2 mg/kg as sulfatide) was orally administered simultaneously with the pharmaceutical drug having hepatic toxicity.
The GOT enzyme released in blood caused by hepatocyte destruction was measured 12 hours after completion of the drug administration, and the liver was extracted to carry out histological tissue examination.

[3] = test system: mouse hepatitis virus (MHV); assay: Interferon enhancer effect in mice infected with mouse hepatitis virus (survival); conditions: ICR mice, MHV Friend strain 2 LD50 i.p.; oral sulfatide used simultaneously with IFN-α i.p., once a day for 3 days
Protocol: Synergetic effect of the simultaneous use of interferon-α (IFN-α) and the substance of the present invention, sulfatide, on mice infected with mouse hepatitis virus (MHV)
A total of 10 ICR mice were used in one group, and intraperitoneal administration of mouse IFN-α and oral administration of […] were carried out once a day for 3 days. Just before the administration on the second day, MHV Friend strain was inoculated into the abdominal cavity in a 2 LD₅₀ equivalent dose, and conditions of the animals were observed until 14 days thereafter to calculate survival ratio.

[4] = test system: herpes simplex type 1 virus (HSV-1); assay: Interferon enhancer effect in mice infected with herpes simplex type 1 virus (survival); conditions: BALB/c mice, HSV-1 MIYAMA strain 10 LD50; oral sulfatide for 5 days together with 4 × 10⁴ IU/kg IFN-α i.p.
Protocol: Synergetic effect of the simultaneous use of IFN-α and sulfatide on mice infected with herpes simplex type 1 virus (HSV-1)
A total of 10 BALB/c mice were used in one group and infected with a 10 LD₅₀ equivalent dose of HSV-1 MIYAMA strain. Intraperitoneal administration of IFN-α was carried out on the day before the inoculation of HSV-1 and just after the inoculation, and oral administration of sulfatide was carried out continuously for 5 days starting on the day before the HSV-1 inoculation until the fourth day after the inoculation. Conditions of the animals were observed until 20 days after the HSV-1 infection to calculate survival rate.

[5] = dose 2 mg/kg oral in feed twice a week from 6 weeks of age
[6] = dose 1 mg/kg oral in feed twice a week from 6 weeks of age

Molecule | Changes in positive urinary protein, Weeks of Age 16 [1, 5] | Changes in positive urinary protein, Weeks of Age 17 [1, 5] | Changes in positive urinary protein, Weeks of Age 18 [1, 5] | further results
CCCCCCCCCCCCCCCCOCC(COC1OC(CO)C(O)C(OS(=O)(=O)O)C1O)OC(=O)CCCCCCCCCCCCCCC [seminolipid, 3-O-(β-D-Galactopyranosyl 3-sulfate)-2-O-hexadecanoyl-1-O-hexadecyl-L-glycerol] | 3/15 | 4/15 | 8/15 | –
sialyl Lewis A | – | – | – | Changes in positive urinary protein, Weeks of Age 16 [1, 6]: 3/15; Changes in positive urinary protein, Weeks of Age 17 [1, 6]: 5/14; Changes in positive urinary protein, Weeks of Age 18 [1, 6]: 9/14
COc1ccc2c(c1)c(CC(=O)O)c(C)n2C(=O)c1ccc(Cl)cc1 [indomethacin, reference compound] | – | – | – | Changes in GOT, 12 hrs after Completion of Drug Administration ([2]; group a): carbon tetrachloride + indomethacin (5 mg/kg oral, 3 times on every other day), no sulfatide): 1054 ± 31.2 KARMEN units
III³ II³ SO₃ Ge3Cer [SB2] | 4/15 | 5/15 | 10/15 | –
sulfatide | 2/15 | 5/15 | 9/15 | Changes in GOT, 12 hrs after Completion of Drug Administration ([2]; group c): carbon tetrachloride + indomethacin (5 mg/kg) + sulfatide composition (2 mg/kg as sulfatide, oral)): 469 ± 61.5 KARMEN units; Changes in GOT, 12 hrs after Completion of Drug Administration ([2]; group d): carbon tetrachloride + tetracycline (10 mg/kg) + sulfatide composition (2 mg/kg as sulfatide, oral)): 439 ± 30.5 KARMEN units; Changes in GOT, 12 hrs after Completion of Drug Administration ([2]; group e): carbon tetrachloride + sulfatide composition (2 mg/kg as sulfatide, oral)): 128 ± 48.7 KARMEN units; effect of IFN-α on average survival days [3]: further increased significantly in a dose dependent fashion; average survival days [4]: significantly effective in dose-dependently prolonging average survival days
sialyl Lewis X | – | – | – | Changes in positive urinary protein, Weeks of Age 16 [1, 6]: 3/15; Changes in positive urinary protein, Weeks of Age 17 [1, 6]: 4/15; Changes in positive urinary protein, Weeks of Age 18 [1, 6]: 8/15
II³ SO₃ Lac Cer [SM3] | 2/15 | 4/15 | 8/15 | –
IV³ SO₃ II³ SO₃ Ge4Cer [SB1a] | 5/15 | 7/15 | 10/15 | –
